Test results reported in patent US8367075B2, “Synergistic combination and method thereof” (Indian Institute of Science, priority 2010, dated 2013).
“Also recorded” adds a separate entry of the source. Where two headings read alike, the source gives them in different places.

Tests used:
EL4 thymoma = EL4 thymoma subcutaneous tumor model in C57BL/6 mice (tumor volume); assay type: in vivo
Description: (§1) EL4 cells, a thymoma cell line, is grown in T75 flasks in RPMI complete medium supplemented with 10% fetal bovine serum, 2 mM L-glutamine, 100 U/ml penicillin, 100 μg/ml streptomycin, 10% nonessential amino acids, 10% HEPES, 10% sodium pyruvate, 50 μM 2-ME, 10 μg/ml gentamycin in a humidified atmosphere of 5% CO2 at 37° C.
C57BL/6 mice (5 per group) of 6 to 8 weeks of age are injected subcutaneously with EL4 […] cells (˜0.5×10^6 cells/mouse). Two groups of mice are intradermally injected with Mycobacterium indicus pranii (˜5×10^8) either 3 or 7 days post-inoculation of tumor cells. Two groups of mice one injected previously with MIP and another uninjected are intraperitoneally injected with 15 mg/Kg body weight of Cyclophosphamide on the next day. Tumor volume is estimated in the three groups of mice on the 11th, 14th and 17th day after tumor inoculation. This has been depicted in FIG. 13. Vehicle alone (0.1 ml of PBS) is used as control and intradermally injected 7 days after administration of cells.

[1] = test system: B-cell malignancies such as Multiple myeloma, Solitary plasmacytoma and Plasma cell leukemia; assay: Mice with B-cell malignancies treated with MIP, Cyclophosphamide or both (Conclusion); assay type: in vivo; conditions: MIP ~5×10^8 intradermal and/or Cyclophosphamide 15 mg/Kg i.p. next day; compared with initial tumor size
Description: The synergistic combination of Cyclophosphamide and Mycobacterium indicus pranii is administered to mice detected with B-cell malignancies such as Multiple myeloma, Solitary plasmacytoma and Plasma cell leukemia. The experiment is conducted mainly on mice which have been detected with said myelomas. The mice are initially examined and the tumor growth and size approximately determined. The mice are then divided into groups so that 5 mice form a group. One mice group is subjected to only Mycobacterium indicus pranii treatment and another group to only Cyclophosphamide treatment. The third group of mice is subjected to a treatment of Mycobacterium indicus pranii along with Cyclophosphamide. This third group of mice are initially intradermally injected with Mycobacterium indicus pranii at a concentration range of ˜5×10^8 cells. […] The mice are then re-examined and the tumor volume estimated on different days after Mycobacterium indicus pranii administration.

Sp2/0 myeloma = test system: Sp2/0 myeloma
Description: BALB/c male mice, aged 6-8 weeks and weighing ˜18-25 g, are procured from the Central Animal Facility, Indian Institute of Science, Bangalore. All mice received care according to institutional guidelines and are maintained under controlled conditions and fed with a standard diet.
as §1, with “Sp2/0” for “EL4”, “myeloma” for “thymoma”, “T175” for “T75”, “IMDM” for “RPMI”
An experimental syngeneic tumor model using the myeloma, Sp2/0 in BALB/c mice is studied. […] Different amounts of cells are washed and injected s.c. to establish the cell numbers that need to be injected to reproducibly display solid tumors within two weeks. Mice are sacrificed once the tumors reach a large size to avoid distress. Tumor volume is monitored on the mentioned days and calculated with the formula, V=a×b^2/2, where a is the longest and b is perpendicular to it, are measured on the surface of the tumor with vernier calipers.
BALB/c mice (5 per group) of 6 to 8 weeks of age are subcutaneously injected with Sp2/0 myeloma cells (˜10×10^6 cells/mouse). Thereafter, mice are intradermally injected with Mycobacterium indicus pranii (˜5×10^8) either 1 day prior to or 3 or 6 days post-inoculation of tumor cells. Tumor volume is estimated on 9th, 12th and 14th day of tumor inoculation. Vehicle alone (0.1 ml of PBS) is used as control and intradermally injected 3 days after administration of cells.
Next, the optimum dose of Mycobacterium indicus pranii required for reducing the tumor size and delaying the appearance of tumors is titrated. BALB/c mice (5 per group) of 6 to 8 weeks of age are subcutaneously injected with Sp2/0 Myeloma cells (˜10×10^6 cells/mouse). Mice are intradermally injected with different doses of Mycobacterium indicus pranii (5×10^3, 5×10^5, 5×10^7 and 5×10^8) 3 days post-inoculation of tumor cells. Tumor volume is estimated on the 9th, 12th and 14th day of tumor inoculation. Vehicle alone (0.1 ml of PBS) is used as control and intradermally injected 3 days after administration of cells.
BALB/c mice are intraperitoneally injected with three different doses of Cyclophosphamide, Indomethacin and RU486 four days after implantation of Sp2/0 cells. The doses of Cyclophosphamide, Indomethacin and RU486 are chosen based on that administered to mice and the standardization of the same in the Sp2/0 tumor model is depicted in FIG. 4. BALB/c mice (5 per group) of 6 to 8 weeks of age are subcutaneously injected with Sp2/0 myeloma cells (˜10×10^6 cells/mouse). The mice are then intraperitoneally injected with different doses of either Cyclophosphamide (5, 15 or 100 mg/Kg body weight/mouse) or Indomethacin (0.1, 1 or 10 mg/Kg body weight/mouse) or RU486 (0.1, 1 or 5 mg/Kg body weight/mouse), 4 days post-inoculation of tumor cells. Tumor volume is estimated on the 9th, 12th and 14th day after tumor inoculation. Vehicle alone (0.5 ml of PBS) is used as control and intradermally injected 4 days after administration of cells.
BALB/c mice (5 per group) of 6 to 8 weeks of age are subcutaneously injected with Sp2/0 myeloma cells (˜10×10^6 cells/mouse). Four groups of mice are intradermally injected with Mycobacterium indicus pranii (˜5×10^8) 3 days post-inoculation of tumor cells. Three groups of Mycobacterium indicus pranii injected mice are intraperitoneally injected with Cyclophosphamide (15 mg/Kg b. wt.), Indomethacin (1 mg/Kg b. wt.) and RU486 (1 mg/Kg b. wt.) on the next day.

| SMILES | tumor reduction (EL4 thymoma; 15 mg/Kg body weight i.p. day 4 or day 8, alone) | tumor size (EL4 thymoma; 15 mg/Kg body weight i.p. on day 8, alone, vs PBS) | tumor size/volume [1] | tumor progression (Sp2/0 myeloma; 5 mg/Kg body weight i.p. day 4, alone) | tumor volume / tumor progression (Sp2/0 myeloma; 15 mg/Kg b. wt. i.p. day 4, alone) | tumor volume (Sp2/0 myeloma; 15 mg/Kg b. wt. i.p. day 8, alone) | toxicity to mice (Sp2/0 myeloma; 50 mg/Kg b. wt. i.p.) | tumor volume (Sp2/0 myeloma; 50 mg/Kg b. wt. i.p. day 4, alone) | tumor volume (Sp2/0 myeloma; 50 mg/kg i.p. day 8, alone) | effect on the mice (toxicity) (Sp2/0 myeloma; 100 mg/Kg body weight i.p. day 4) | tumor progression (Sp2/0 myeloma; 100 mg/Kg body weight i.p. day 4, alone) | tumor volume (Sp2/0 myeloma; 1, 5 and 15 mg/Kg b. wt. i.p. day 8, alone) | tumor volume (Sp2/0 myeloma; 1 and 5 mg/Kg b. wt. i.p. day 4, alone) | tumor volume (Sp2/0 myeloma; Cyclophosphamide alone on the same day as MIP (day 3), one day prior or one day after) | tumor volume (Sp2/0 myeloma; 0.1, 1 or 10 mg/Kg body weight i.p. day 4, alone, even at the highest dose) | tumor volume (Sp2/0 myeloma; MIP ~5×10^8 intradermal day 3 plus drug i.p. day 4 (Cyclophosphamide 15, Indomethacin 1 or RU486 1 mg/Kg b. wt.)) |
| --- | --- | --- | --- | --- | --- | --- | --- | --- | --- | --- | --- | --- | --- | --- | --- | --- |
| O=P1(N(CCCl)CCCl)NCCCO1 (stereo not shown) [Cyclophosphamide] | unable to induce any effect on tumor reduction | greater than observed with PBS | failed to elicit a similar tumor size reduction | not able to reduce tumor progression | not able to sufficiently prevent tumor progression; also recorded: showed some reduction in tumor volume | showed some reduction in tumor volume; also recorded: unable to induce any effect on tumor reduction | toxic to mice | effective | significant tumor reduction | reduced body weight and hair loss | able to prevent tumor progression to a considerable extent | did not significantly reduce tumor volume | unable to reduce tumor volume | had no effect on tumor volume | – | – |
| COc1ccc2c(c1)c(CC(=O)O)c(C)n2C(=O)c1ccc(Cl)cc1 [Indomethacin] | – | – | – | – | – | – | – | – | – | – | – | – | – | – | did not show any significant reduction in tumor volume | seemed to reverse the beneficial effects observed with Mycobacterium indicus pranii |
